# According to patent publication EP1923473B1, “Bis-diglycolamides (BISDGA) as new extractants for lanthanides [Ln(III)] and actinides [An(III)] from aqueous high-level wastes” (Universidad Autónoma de Madrid, priority 2006, dated 2008):
# Experiment: Batch extraction from simulated HLLW from the PUREX process
# Format: physicochemical
# Settings: 0.1 mol/L in TPH/1-octanol (90:10)
# Source text: The feed solution used for the extraction tests is a simulated solution of an HLLW from the PUREX process, the composition of which is shown in Table 4. Table 4: Composition of the simulated HLLW-PUREX solution used for the extraction tests
# The composition of the HLLW corresponds to a burn-up of 33 GWd/tHM, the generated volume of HLLW being 5000 1/t of fuel. The feed was spiked with ^241Am, ^244Cm, ^252Cf and ^152Eu. Oxalic acid and N-(2-hydroxyethyl)ethylenediaminotriacetate (HEDTA) were also added before the extraction tests.
# 500 µL of the aqueous and organic phases were spiked with 10 µL of a tracer solution containing 241Am, 244Cm, 252Cf and ^152Eu, and were equilibrated for 10 minutes while they were stirred vigorously in a vortex stirrer. After the separation of the phases by centrifugation, 200 µL aliquots of each phase were taken for the determination of the concentration of ^241Am and ^152Eu using a high-purity germanium spectrometer system (EG&G Ortec). The nuclides ^241Am, ^244Cm and ^252Cf were measured by alpha spectrometry with an α-Analyst device of the company Canberra-Packard GmbH, Germany.
# The concentrations of the stable elements were determined by mass spectrometry with an inductively coupled plasma source (ICP-MS) in a DRC Elan 6100 device of Perkin Elmer Sciex. The aqueous phase was measured directly after the appropriate dilution. The organic phase was analyzed after having mineralized the organic matter by microwave acid digestion and subsequent dilution.
# The distribution coefficients were calculated for each element according to section C).
# A 0.1 mol/L solution of compound 4 in the "TPH/1-octanol (90:10)%vol" mixture was prepared. Extraction experiments were carried out with said simulated HLLW in a pure form and also adding oxalic acid and HEDTA to it. These complexing agents have shown to be effective in the DIAMEX process for the complexing of Mo, Zr (H2C2O4) and Pd (HEDTA).
# Extraction experiments were carried out with said simulated HLLW in a pure form and also adding oxalic acid and HEDTA to it.
# [1] = Oxalic acid 0.2 mol/L, HEDTA 0.05 mol/L, TBP 0.5 mol/L
# [2] = Oxalic acid 0.2 mol/L, HEDTA 0.05 mol/L, TBP No
# [3] = Oxalic acid 0.3 mol/L, HEDTA 0.05 mol/L, TBP 0.5 mol/L
# [4] = Oxalic acid 0.3 mol/L, HEDTA 0.05 mol/L, TBP No
# [5] = Oxalic acid No, HEDTA No, TBP 0.5 mol/L
# [6] = Oxalic acid No, HEDTA No, TBP No
substance,measurement,setting,value
2-Dioctylcarbamoylmethoxy-N-[3-[3-(2-dioctylcarbamoyl-methoxyacetylamino)propoxy]propyl]acetamide [Compound 18],Distribution coefficients Ag,[1],0.19
same,Distribution coefficients Ba,[1],0.0008
same,Distribution coefficients Cd,[1],0.022
same,Distribution coefficients Ce,[1],20
same,Distribution coefficients Cf-252,[1],666
same,Distribution coefficients Cm-244,[1],95
same,Distribution coefficients Cs,[1],0.0005
same,Distribution coefficients Eu,[1],309
same,Distribution coefficients Eu-152,[1],282
same,Distribution coefficients Gd,[1],140
same,Distribution coefficients La,[1],12
same,Distribution coefficients Mo,[1],0.15
same,Distribution coefficients Nd,[1],69
same,Distribution coefficients Pd,[1],0.05
same,Distribution coefficients Pr,[1],32
same,Distribution coefficients Rb,[1],0.008
same,Distribution coefficients Rh,[1],0.003
same,Distribution coefficients Ru,[1],0.22
same,Distribution coefficients Sm,[1],284
same,Distribution coefficients Y,[1],631
same,Distribution coefficients Zr,[1],0.18
same,Distribution coefficients Ag,[2],0.5
same,Distribution coefficients Ba,[2],0.0008
same,Distribution coefficients Cd,[2],0.032
same,Distribution coefficients Ce,[2],24
same,Distribution coefficients Cf-252,[2],511
same,Distribution coefficients Cm-244,[2],85
same,Distribution coefficients Cs,[2],0.0004
same,Distribution coefficients Eu,[2],341
same,Distribution coefficients Eu-152,[2],523
same,Distribution coefficients Gd,[2],197
same,Distribution coefficients La,[2],12
same,Distribution coefficients Mo,[2],0.21
same,Distribution coefficients Nd,[2],101
same,Distribution coefficients Pd,[2],0.10
same,Distribution coefficients Pr,[2],44
same,Distribution coefficients Rb,[2],0.008
same,Distribution coefficients Rh,[2],0.004
same,Distribution coefficients Ru,[2],0.21
same,Distribution coefficients Sm,[2],432
same,Distribution coefficients Y,[2],618
same,Distribution coefficients Zr,[2],0.51
same,Distribution coefficients Ag,[3],0.08
same,Distribution coefficients Ba,[3],0.0008
same,Distribution coefficients Cd,[3],0.024
same,Distribution coefficients Ce,[3],22
same,Distribution coefficients Cf-252,[3],1353
same,Distribution coefficients Cm-244,[3],164
same,Distribution coefficients Cs,[3],0.0004
same,Distribution coefficients Eu,[3],335
same,Distribution coefficients Eu-152,[3],330
same,Distribution coefficients Gd,[3],146
same,Distribution coefficients La,[3],12
same,Distribution coefficients Mo,[3],0.19
same,Distribution coefficients Nd,[3],78
same,Distribution coefficients Pd,[3],0.02
same,Distribution coefficients Pr,[3],35
same,Distribution coefficients Rb,[3],0.008
same,Distribution coefficients Rh,[3],0.003
same,Distribution coefficients Ru,[3],0.23
same,Distribution coefficients Sm,[3],363
same,Distribution coefficients Y,[3],811
same,Distribution coefficients Zr,[3],0.06
same,Distribution coefficients Ag,[4],0.14
same,Distribution coefficients Ba,[4],0.0008
same,Distribution coefficients Cd,[4],0.034
same,Distribution coefficients Ce,[4],24
same,Distribution coefficients Cf-252,[4],1451
same,Distribution coefficients Cm-244,[4],163
same,Distribution coefficients Cs,[4],0.0006
same,Distribution coefficients Eu,[4],275
same,Distribution coefficients Eu-152,[4],436
same,Distribution coefficients Gd,[4],196
same,Distribution coefficients La,[4],12
same,Distribution coefficients Mo,[4],0.19
same,Distribution coefficients Nd,[4],97
same,Distribution coefficients Pd,[4],0.04
same,Distribution coefficients Pr,[4],43
same,Distribution coefficients Rb,[4],0.008
same,Distribution coefficients Rh,[4],0.003
same,Distribution coefficients Ru,[4],0.18
same,Distribution coefficients Sm,[4],331
same,Distribution coefficients Y,[4],455
same,Distribution coefficients Zr,[4],0.13
same,Distribution coefficients Ag,[5],6.8
same,Distribution coefficients Ba,[5],0.0008
same,Distribution coefficients Cd,[5],0.015
same,Distribution coefficients Ce,[5],14
same,Distribution coefficients Cf-252,[5],605
same,Distribution coefficients Cm-244,[5],102
same,Distribution coefficients Cs,[5],0.0004
same,Distribution coefficients Eu,[5],299
same,Distribution coefficients Eu-152,[5],393
same,Distribution coefficients Gd,[5],126
same,Distribution coefficients La,[5],8.5
same,Distribution coefficients Mo,[5],0.06
same,Distribution coefficients Nd,[5],49
same,Distribution coefficients Pd,[5],2.2
same,Distribution coefficients Pr,[5],24
same,Distribution coefficients Rb,[5],0.008
same,Distribution coefficients Rh,[5],0.003
same,Distribution coefficients Ru,[5],0.28
same,Distribution coefficients Sm,[5],234
same,Distribution coefficients Y,[5],1119
same,Distribution coefficients Zr,[5],16.5
same,Distribution coefficients Ag,[6],5.8
same,Distribution coefficients Ba,[6],0.0008
same,Distribution coefficients Cd,[6],0.021
same,Distribution coefficients Ce,[6],17
same,Distribution coefficients Cf-252,[6],1352
same,Distribution coefficients Cm-244,[6],165
same,Distribution coefficients Cs,[6],0.0004
same,Distribution coefficients Eu,[6],267
same,Distribution coefficients Eu-152,[6],499
same,Distribution coefficients Gd,[6],160
same,Distribution coefficients La,[6],10
same,Distribution coefficients Mo,[6],0.09
same,Distribution coefficients Nd,[6],74
same,Distribution coefficients Pd,[6],1.7
same,Distribution coefficients Pr,[6],32
same,Distribution coefficients Rb,[6],0.008
same,Distribution coefficients Rh,[6],0.004
same,Distribution coefficients Ru,[6],0.24
same,Distribution coefficients Sm,[6],266
same,Distribution coefficients Y,[6],574
same,Distribution coefficients Zr,[6],9.1
